Experimental data as given in ChEMBL document CHEMBL6182864, “Design, synthesis and biological evaluation of 3-amino-6-(2-hydroxyphenyl)pyridazin-4-aryl derivatives as SMARCA2/4 degraders” (Eur J Med Chem, 2025).
Active and inactive are the calls of the source. No cut-off for these calls is given here.

Experiments:
SNU-449 = experiment: cells; settings: Homo sapiens, SNU-449, 72 h
[1] = Cmax in SPF Sprague-Dawley rat at 1 mg/kg, iv by LC-MS/MS analysis; type: ADME, organism-based; settings: in vivo
MV4-11 [2] = experiment: Down regulation of CDC25A mRNA expression in human MV4-11 cells at 11.1 to 33.3 nM measured after 24 hrs by RT-qPCR analysis; type: functional, cell-based; settings: dose 11.1-33.3 nM
[3] = AUC (0 to t) in SPF Sprague-Dawley rat at 1 mg/kg, iv by LC-MS/MS analysis; type: ADME, organism-based; settings: in vivo
MDA-MB-231 = experiment: cells; settings: Homo sapiens, MDA-MB-231, 72 h
MV4-11 [4] = experiment: Induction of apoptosis in human MV4-11 cells assessed as viable cells at 300 nM measured after 72 hrs by Annexin-V-FITC/propidium iodide staining based flow cytometry (reference value: 89.49%); type: functional; settings: read-out: Activity
MV4-11 [5] = experiment: Down regulation of CD44 mRNA expression in human MV4-11 cells at 11.1 to 1000 nM measured after 24 hrs by RT-qPCR analysis; type: functional, cell-based; settings: dose 11.1-1000 nM
MOLM-13 [6] = experiment: Cell cycle arrest in human MOLM-13 cells assessed as increase in accumulation of cells at G0/G1 phase measured after 48 hrs by propidium iodide staining based flow cytometry; type: functional; settings: dose 100-1000 nM
MV4-11 [7] = experiment: Down regulation of TRAP1 mRNA expression in human MV4-11 cells at 11.1 to 33.3 nM measured after 24 hrs by RT-qPCR analysis; type: functional, cell-based; settings: dose 11.1-33.3 nM
[8] = Oral bioavailability in SPF Sprague-Dawley rat at 10 mg/kg by LC-MS/MS analysis; type: ADME, organism-based; settings: in vivo
[9] = Down regulation of SMARCA2 level in human MV4-11 cells at 100 nM measured after 6 hrs by mass spectrometric proteomic analysis relative to control; type: functional
MV4-11 [10] = experiment: Induction of apoptosis in human MV4-11 cells assessed as early apoptotic cells at 1000 nM measured after 72 hrs by Annexin-V-FITC/propidium iodide staining based flow cytometry (reference value: 9.32%); type: functional
MV4-11 [11] = experiment: Induction of apoptosis in human MV4-11 cells assessed as necrotic cells at 1000 nM measured after 72 hrs by Annexin-V-FITC/propidium iodide staining based flow cytometry (reference value: 0.1%); type: functional
MV4-11 [12] = experiment: Induction of apoptosis in human MV4-11 cells assessed as viable cells at 1000 nM measured after 72 hrs by Annexin-V-FITC/propidium iodide staining based flow cytometry (reference value: 89.49%); type: functional; settings: read-out: Activity
[13] = Tmax in SPF Sprague-Dawley rat at 1 mg/kg, iv by LC-MS/MS analysis; type: ADME, organism-based; settings: in vivo
MOLM-13 [14] = experiment: Induction of apoptosis in human MOLM-13 cells assessed as late apoptotic cells at 100 nM measured after 72 hrs by Annexin-V-FITC/propidium iodide staining based flow cytometry (reference value: 3.87%); type: functional
MOLM-13 [15] = experiment: Induction of apoptosis in human MOLM-13 cells assessed as necrotic cells at 100 nM measured after 72 hrs by Annexin-V-FITC/propidium iodide staining based flow cytometry (reference value: 0.28%); type: functional
MOLM-13 [16] = experiment: Induction of apoptosis in human MOLM-13 cells assessed as upregulation of cleaved caspase-3 expression measured after 72 hrs by Western blot analysis; type: functional, cell-based; settings: dose 100-1000 nM
MV4-11 [17] = experiment: Down regulation of BCL-2 mRNA expression in human MV4-11 cells at 11.1 to 1000 nM measured after 24 hrs by RT-qPCR analysis; type: functional, cell-based; settings: dose 11.1-1000 nM
A2780 = experiment: cells; settings: Homo sapiens, A2780, 72 h
[18] = MRT (0 to t) in SPF Sprague-Dawley rat at 10 mg/kg, po by LC-MS/MS analysis; type: ADME, organism-based; settings: in vivo
MV4-11 [19] = experiment: Down regulation of MYC protein expression in human MV4-11 cells at 11.1 to 1000 nM measured after 24 hrs by Western blot analysis; type: functional, cell-based; settings: dose 11.1-1000 nM
MOLM-13 [20] = experiment: cells; settings: Homo sapiens, MOLM-13, 72 h
MOLM-13 [21] = experiment: Induction of apoptosis in human MOLM-13 cells assessed as early apoptotic cells at 100 nM measured after 72 hrs by Annexin-V-FITC/propidium iodide staining based flow cytometry (reference value: 5.57%); type: functional
[22] = Down regulation of SMARCA4 level in human MV4-11 cells at 100 nM measured after 6 hrs by mass spectrometric proteomic analysis relative to control; type: functional
[23] = Half life in SPF Sprague-Dawley rat at 10 mg/kg, po by LC-MS/MS analysis; type: ADME, organism-based; settings: in vivo
MV4-11 [24] = experiment: Down regulation of CDC25A mRNA expression in human MV4-11 cells at 100 to 1000 nM measured after 24 hrs by RT-qPCR analysis; type: functional, cell-based; settings: dose 100-1000 nM
[25] = MRT (0 to t) in SPF Sprague-Dawley rat at 1 mg/kg, iv by LC-MS/MS analysis; type: ADME, organism-based; settings: in vivo
MOLM-13 [26] = experiment: Induction of apoptosis in human MOLM-13 cells assessed as necrotic cells at 1000 nM measured after 72 hrs by Annexin-V-FITC/propidium iodide staining based flow cytometry (reference value: 0.28%); type: functional
MV4-11 [27] = experiment: Down regulation of […] mRNA expression in human MV4-11 cells at 11.1 to 33.3 nM measured after 24 hrs by RT-qPCR analysis; type: functional, cell-based; settings: dose 11.1-33.3 nM

IC50 (SNU-449): 21.5 µM
Cmax [1]: 1950 ng/mL
AUCt [3]: 358 ng·h/mL
IC50 (MDA-MB-231): 24.3 µM
F [8]: 0.62%
Tmax [13]: 1.98 min
IC50 (A2780): 1.79 µM
MRT last [18]: 48.6 min
IC50 (MOLM-13 [20]): 0.023 µM
half-life [23]: 126 min
MRT last [25]: 42 min
Structure (SMILES): Cc1ncsc1-c1ccc([C@H](C)NC(=O)[C@@H]2C[C@@H](O)CN2C(=O)[C@@H](NC(=O)C2(c3ccc(-c4cc(-c5ccccc5O)nnc4N)cc3)CC2)C(C)(C)C)cc1
Activity (MV4-11 [2]): inactive
viability at 0.3 µM (MV4-11 [4]): 24.4%
Activity (MV4-11 [5]): Active
Activity (MOLM-13 [6]): Dose-dependent-effect
Activity (MV4-11 [7]): inactive
Activity [9]: >=50%
Activity (MV4-11 [10]): 51.91%
Activity (MV4-11 [11]): 1.67%
viability at 1 µM (MV4-11 [12]): 22.1%
Activity (MOLM-13 [14]): 6.91%
Activity (MOLM-13 [15]): 0.19%
Activity (MOLM-13 [16]): Dose-dependent-effect
Activity (MV4-11 [17]): Active
Activity (MV4-11 [19]): Active
Activity (MOLM-13 [21]): 38.84%
Activity [22]: >=50%
Activity (MV4-11 [24]): Active
Activity (MOLM-13 [26]): 0.24%
Activity (MV4-11 [27]): inactive
